ChEMBL document CHEMBL5543092, “Design, synthesis, and biological characterization of proteolysis targeting chimera (PROTACs) for the ataxia telangiectasia and RAD3-related (ATR) kinase” (Eur J Med Chem, 2024)
Active and inactive are the calls of the source. No cut-off for these calls is given here.

Tests used:
[1] = Chemical stability of the compound in at pH 7.4 measured at 6 hrs by HPLC based non-enzymatic stability assay; type: physicochemical; conditions: buffer, read-out: Stability
[2] = Chemical stability of the compound in at pH 7.4 measured at 12 hrs by HPLC based non-enzymatic stability assay; type: physicochemical; conditions: buffer, read-out: Stability
[3] = Chemical stability of the compound in at pH 7.4 measured at 24 hrs by HPLC based non-enzymatic stability assay; type: physicochemical; conditions: buffer, read-out: Stability
[4] = Chemical stability of the compound in at pH 7.4 measured at 48 hrs by HPLC based non-enzymatic stability assay; type: physicochemical; conditions: buffer, read-out: Stability
[5] = Chemical stability of the compound in at pH 7.4 measured at 72 hrs by HPLC based non-enzymatic stability assay; type: physicochemical; conditions: buffer, read-out: Stability
[6] = target: T1, Protein cereblon/Serine/threonine-protein kinase ATR (Homo sapiens) (UniProt Q13535+Q96SW2); experiment: PROTAC activity at ATR/CRBN in patient derived human MIA PaCa-2 cells assessed as reduction in protein level at 0.1 to 5 uM measured after 24 hrs by immunoblot analysis relative to untreated control; type: cell-based; conditions: dose 0.1-5 µM
T1 sequence (Q13535 whole entry, looked up): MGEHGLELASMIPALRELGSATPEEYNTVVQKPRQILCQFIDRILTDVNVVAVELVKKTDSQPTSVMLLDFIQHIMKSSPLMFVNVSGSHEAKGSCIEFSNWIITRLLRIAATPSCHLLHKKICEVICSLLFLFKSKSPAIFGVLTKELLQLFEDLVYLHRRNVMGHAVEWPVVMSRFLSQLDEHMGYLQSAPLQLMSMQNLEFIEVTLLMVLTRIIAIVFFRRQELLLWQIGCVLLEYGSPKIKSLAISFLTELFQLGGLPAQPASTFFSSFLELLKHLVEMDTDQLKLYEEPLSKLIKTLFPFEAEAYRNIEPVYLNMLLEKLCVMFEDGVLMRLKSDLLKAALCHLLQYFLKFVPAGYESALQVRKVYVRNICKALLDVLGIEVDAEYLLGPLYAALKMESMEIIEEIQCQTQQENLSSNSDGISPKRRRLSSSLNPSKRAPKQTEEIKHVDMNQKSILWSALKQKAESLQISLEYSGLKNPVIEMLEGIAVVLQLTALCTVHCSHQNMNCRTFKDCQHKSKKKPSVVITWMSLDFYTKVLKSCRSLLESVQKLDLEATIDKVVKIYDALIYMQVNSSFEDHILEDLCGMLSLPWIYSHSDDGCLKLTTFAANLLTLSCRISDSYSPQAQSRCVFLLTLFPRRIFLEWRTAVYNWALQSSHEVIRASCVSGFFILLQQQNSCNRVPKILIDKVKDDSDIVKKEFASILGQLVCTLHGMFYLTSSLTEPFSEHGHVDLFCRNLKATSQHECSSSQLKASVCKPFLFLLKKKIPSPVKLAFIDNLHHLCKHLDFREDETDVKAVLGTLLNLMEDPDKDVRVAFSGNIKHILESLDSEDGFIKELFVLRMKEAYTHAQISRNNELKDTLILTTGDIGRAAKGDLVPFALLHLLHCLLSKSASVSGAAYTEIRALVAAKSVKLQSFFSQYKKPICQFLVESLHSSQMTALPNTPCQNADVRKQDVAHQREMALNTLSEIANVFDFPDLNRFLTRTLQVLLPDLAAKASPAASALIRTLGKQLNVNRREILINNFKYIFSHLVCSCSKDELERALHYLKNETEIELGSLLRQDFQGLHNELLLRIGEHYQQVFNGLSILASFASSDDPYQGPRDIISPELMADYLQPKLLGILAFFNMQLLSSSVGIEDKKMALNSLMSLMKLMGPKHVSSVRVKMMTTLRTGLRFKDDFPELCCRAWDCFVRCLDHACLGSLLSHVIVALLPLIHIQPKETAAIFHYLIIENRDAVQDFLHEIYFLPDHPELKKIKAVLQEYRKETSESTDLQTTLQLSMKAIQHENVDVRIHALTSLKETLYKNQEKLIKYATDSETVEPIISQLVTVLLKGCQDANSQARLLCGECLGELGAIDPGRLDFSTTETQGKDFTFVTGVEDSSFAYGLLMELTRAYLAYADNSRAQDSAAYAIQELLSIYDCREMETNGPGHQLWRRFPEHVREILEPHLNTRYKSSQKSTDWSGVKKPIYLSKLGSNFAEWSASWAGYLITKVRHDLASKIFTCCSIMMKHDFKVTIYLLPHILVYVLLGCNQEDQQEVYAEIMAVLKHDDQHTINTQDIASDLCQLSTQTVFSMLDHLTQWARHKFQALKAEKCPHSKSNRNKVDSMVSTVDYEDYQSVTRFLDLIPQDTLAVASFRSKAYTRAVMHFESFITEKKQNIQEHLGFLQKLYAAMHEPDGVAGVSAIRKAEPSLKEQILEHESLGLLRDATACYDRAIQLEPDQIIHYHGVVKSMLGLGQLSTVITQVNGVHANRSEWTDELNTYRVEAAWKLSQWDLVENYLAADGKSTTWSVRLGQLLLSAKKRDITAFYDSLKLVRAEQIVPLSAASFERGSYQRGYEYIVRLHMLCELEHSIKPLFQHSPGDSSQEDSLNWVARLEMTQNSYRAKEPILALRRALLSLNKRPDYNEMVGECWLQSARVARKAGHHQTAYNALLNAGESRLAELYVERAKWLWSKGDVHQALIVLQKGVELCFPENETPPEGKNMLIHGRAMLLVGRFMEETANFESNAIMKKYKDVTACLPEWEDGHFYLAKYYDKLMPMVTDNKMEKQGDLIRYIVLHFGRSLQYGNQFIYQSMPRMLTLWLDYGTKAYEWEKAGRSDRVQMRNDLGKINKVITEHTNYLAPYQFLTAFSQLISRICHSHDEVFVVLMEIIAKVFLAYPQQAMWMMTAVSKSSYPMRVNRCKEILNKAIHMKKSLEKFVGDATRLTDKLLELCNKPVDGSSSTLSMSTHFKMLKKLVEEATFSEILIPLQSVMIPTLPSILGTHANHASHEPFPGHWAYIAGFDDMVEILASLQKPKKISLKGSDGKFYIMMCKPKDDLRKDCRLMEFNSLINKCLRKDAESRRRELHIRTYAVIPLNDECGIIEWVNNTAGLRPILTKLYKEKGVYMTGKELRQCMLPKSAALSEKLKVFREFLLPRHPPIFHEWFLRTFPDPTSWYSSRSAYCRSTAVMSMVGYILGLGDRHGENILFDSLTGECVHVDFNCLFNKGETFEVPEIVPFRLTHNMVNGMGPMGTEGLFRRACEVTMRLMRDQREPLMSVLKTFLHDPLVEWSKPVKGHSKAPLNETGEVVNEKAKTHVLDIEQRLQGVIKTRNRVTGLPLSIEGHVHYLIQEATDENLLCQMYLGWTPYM
T1 sequence (Q96SW2 whole entry, looked up): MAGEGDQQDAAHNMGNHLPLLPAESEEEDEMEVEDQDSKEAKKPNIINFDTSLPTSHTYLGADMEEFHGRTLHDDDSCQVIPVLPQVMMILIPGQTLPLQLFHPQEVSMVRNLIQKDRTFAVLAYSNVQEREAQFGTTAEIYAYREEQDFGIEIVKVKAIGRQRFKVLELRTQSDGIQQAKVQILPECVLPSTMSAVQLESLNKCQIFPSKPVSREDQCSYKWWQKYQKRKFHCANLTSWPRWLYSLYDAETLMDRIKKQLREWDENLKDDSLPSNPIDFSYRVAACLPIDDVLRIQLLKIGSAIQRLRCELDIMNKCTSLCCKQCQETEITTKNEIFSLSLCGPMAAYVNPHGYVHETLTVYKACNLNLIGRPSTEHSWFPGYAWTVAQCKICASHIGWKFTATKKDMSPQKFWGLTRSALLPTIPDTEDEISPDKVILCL

HEK293 = experiment: Cytotoxicity against human HEK293 cells assessed as cell viability at 50 uM incubated for 24 hrs by Alamar Blue reagent based assay relative to control; type: functional; conditions: read-out: Activity
[7] = target: T1, Protein cereblon/Serine/threonine-protein kinase ATR (Homo sapiens); experiment: PROTAC activity at ATR/CRBN in patient derived human MIA PaCa-2 cells assessed as reduction in protein level at 2 uM measured after 24 hrs by immunoblot analysis relative to untreated control; type: cell-based; set-up: scale not given: the % may be the effect or the level left

Compound	remaining at 6 h [1] [%]	remaining at 12 h [2] [%]	remaining at 24 h [3] [%]	remaining at 48 h [4] [%]	remaining at 72 h [5] [%]	Activity [6]	viability at 50 µM (HEK293) [%]	Activity [7]
Nc1ncc(-c2ccc(S(=O)(=O)NCCCCC(=O)NCCOc3ccc(C4CCC(=O)NC4=O)cc3)cc2)nc1C(=O)Nc1ccccc1 (stereo not drawn)	101	101	101	99	99	inactive	66.4	
Nc1ncc(-c2ccc(S(=O)(=O)NCCCCCC(=O)N3CCN(c4cccc(C(=O)NC5CCC(=O)NC5=O)n4)CC3)cc2)nc1C(=O)Nc1ccccc1 (stereo not drawn)	102	104	97	82	65	inactive	86.5	
Nc1ncc(-c2ccc(S(=O)(=O)NCCCCCCCC(=O)N3CCN(c4ccc5c(c4)C(=O)N(C4CCC(=O)NC4=O)C5=O)CC3)cc2)nc1C(=O)Nc1ccccc1 (stereo not drawn)	98	105	108	94	84		90.5	inactive
Nc1ncc(-c2ccc(S(=O)(=O)NCCOCCOCCC(=O)N3CCN(c4ccc5c(c4)C(=O)N(C4CCC(=O)NC4=O)C5=O)CC3)cc2)nc1C(=O)Nc1ccccc1 (stereo not drawn)	100	95	80	21	6		79.9	inactive
Nc1ncc(-c2ccc(S(=O)(=O)NCCCCC(=O)N3CCN(c4ccc5c(c4)C(=O)N(C4CCC(=O)NC4=O)C5=O)CC3)cc2)nc1C(=O)Nc1ccccc1 (stereo not drawn)	97	94	90	82	74		102	inactive
Nc1ncc(-c2ccc(S(=O)(=O)NCCCCCC(=O)N3CCN(c4ccc5c(c4)C(=O)N(C4CCC(=O)NC4=O)C5=O)CC3)cc2)nc1-c1nnc(-c2ccccc2)o1 (stereo not drawn)	96	92	90	80	73	inactive	85.6	
CNCc1ccc(-c2nnc(-c3nc(-c4ccc(S(=O)(=O)NCCCCCC(=O)N5CCN(c6ccc7c(c6)C(=O)N(C6CCC(=O)NC6=O)C7=O)CC5)cc4)cnc3N)o2)cc1 (stereo not drawn)	98	95	92	81	71	inactive	105	
Nc1ncc(-c2ccc(S(=O)(=O)NCCCCC(=O)N3CCN(c4ccc5c(c4)C(=O)N(C4CCC(=O)NC4=O)C5=O)CC3)cc2)nc1-c1nnc(-c2ccccc2)o1 (stereo not drawn)	99	95	91	85	77		97.6	
Nc1ncc(-c2ccc(S(=O)(=O)NCCCCC(=O)NCC#Cc3cccc4c3CN(C3CCC(=O)NC3=O)C4=O)cc2)nc1-c1nnc(-c2ccccc2)o1 (stereo not drawn)	104	105	105	103	107		95.5	inactive
CNCc1ccc(-c2nnc(-c3nc(-c4ccc(S(=O)(=O)NCCCCCC(=O)N[C@H](C(=O)N5C[C@H](O)C[C@H]5C(=O)NCc5ccc(-c6scnc6C)cc5)C(C)(C)C)cc4)cnc3N)o2)cc1	101	100	101	99	99		81.8	
CNCc1ccc(-c2nnc(-c3nc(-c4ccc(S(=O)(=O)NCCCCC(=O)NCCCC#Cc5cccc6c5CN(C5CCC(=O)NC5=O)C6=O)cc4)cnc3N)o2)cc1 (stereo not drawn)	101	101	102	100	100		107	40%
CNCc1ccc(-c2nnc(-c3nc(-c4ccc(S(=O)(=O)NCCCCCCC(=O)NCC#Cc5cccc6c5CN(C5CCC(=O)NC5=O)C6=O)cc4)cnc3N)o2)cc1 (stereo not drawn)	101	101	101	100	101		89.5	> 20%
Nc1ncc(-c2ccc(S(=O)(=O)NCCCCC(=O)NCCCC#Cc3cccc4c3CN(C3CCC(=O)NC3=O)C4=O)cc2)nc1C(=O)Nc1ccccc1 (stereo not drawn)	102	102	102	103	103		104	
CNCc1ccc(-c2nnc(-c3nc(-c4ccc(S(=O)(=O)NCCCCCCC(=O)N5CCN(c6ccc7c(c6)C(=O)N(C6CCC(=O)NC6=O)C7=O)CC5)cc4)cnc3N)o2)cc1 (stereo not drawn)	97	95	91	79	72		95.7	
CNCc1ccc(-c2nnc(-c3nc(-c4ccc(S(=O)(=O)NCCCCC(=O)N5CCN(c6ccc7c(c6)C(=O)N(C6CCC(=O)NC6=O)C7=O)CC5)cc4)cnc3N)o2)cc1 (stereo not drawn)	97	99	91	83	74		104	
Cc1ncsc1-c1ccc(CNC(=O)[C@@H]2C[C@@H](O)CN2C(=O)[C@@H](NC(=O)CCCCNS(=O)(=O)c2ccc(-c3cnc(N)c(-c4nnc(-c5ccccc5)o4)n3)cc2)C(C)(C)C)cc1	100	100	102	103	104		91.1	
Nc1ncc(-c2ccc(S(=O)(=O)NCCCCCC(=O)NCC#Cc3cccc4c3CN(C3CCC(=O)NC3=O)C4=O)cc2)nc1-c1nnc(-c2ccccc2)o1 (stereo not drawn)	108	105	105	106	106		70.5	40%
Cc1ncsc1-c1ccc(CNC(=O)[C@@H]2C[C@@H](O)CN2C(=O)[C@@H](NC(=O)CCCCCNS(=O)(=O)c2ccc(-c3cnc(N)c(-c4nnc(-c5ccccc5)o4)n3)cc2)C(C)(C)C)cc1	100	100	102	103	104		79.8	
CN1C(=O)CCC(N2Cc3c(C#CCCCNC(=O)CCCCCNS(=O)(=O)c4ccc(-c5cnc(N)c(C(=O)Nc6ccccc6)n5)cc4)cccc3C2=O)C1=O (stereo not drawn)	100	100	99	98	97		83.5	inactive
Nc1ncc(-c2ccc(S(=O)(=O)NCCOCCOCCOCCC(=O)N3CCN(c4ccc5c(c4)C(=O)N(C4CCC(=O)NC4=O)C5=O)CC3)cc2)nc1C(=O)Nc1ccccc1 (stereo not drawn)	101	100	97	83	74		75	inactive
CNCc1ccc(-c2nnc(-c3nc(-c4ccc(S(=O)(=O)NCCCCCC(=O)NCCCC#Cc5cccc6c5CN(C5CCC(=O)NC5=O)C6=O)cc4)cnc3N)o2)cc1 (stereo not drawn)	104	103	103	103	102		101	inactive
Nc1ncc(-c2ccc(S(=O)(=O)NCCCCCC(=O)NCC#Cc3cccc4c3CN(C3CCC(=O)NC3=O)C4=O)cc2)nc1C(=O)Nc1ccccc1 (stereo not drawn)	101	103	104	105	109		86.4	Active
Nc1ncc(-c2ccc(S(=O)(=O)NCCCCCCCC(=O)NCC#Cc3cccc4c3CN(C3CCC(=O)NC3=O)C4=O)cc2)nc1C(=O)Nc1ccccc1 (stereo not drawn)	100	100	98	77	47		94.2	
Nc1ncc(-c2ccc(S(=O)(=O)NCCCCCCC(=O)N3CCN(c4ccc5c(c4)C(=O)N(C4CCC(=O)NC4=O)C5=O)CC3)cc2)nc1C(=O)Nc1ccccc1 (stereo not drawn)	97	92	88	78	70		93.2	
CNCc1ccc(-c2nnc(-c3nc(-c4ccc(S(=O)(=O)NCCCCCCC(=O)NCCCC#Cc5cccc6c5CN(C5CCC(=O)NC5=O)C6=O)cc4)cnc3N)o2)cc1 (stereo not drawn)	101	101	101	95	93		91.8	> 20%
CNCc1ccc(-c2nnc(-c3nc(-c4ccc(S(=O)(=O)NCCCCCC(=O)NCC#Cc5cccc6c5CN(C5CCC(=O)NC5=O)C6=O)cc4)cnc3N)o2)cc1 (stereo not drawn)	101	101	101	100	100		102	> 20%
